Measurements reported in patent US20250228854A1, “HETEROCYCLIC SUBSTITUTED PYRIMIDOPYRAN COMPOUNDS AND THEIR APPLICATIONS” (priority 2023, published 2025).
Where a name gives a salt, the structure may show the parent alone.

Legend:
[1] = system: p-ERK in AsPC-1 cells (KRAS^G12D mutation, pancreatic cancer); assay: AsPC-1 cell p-ERK inhibition test, Experimental Example 2; conditions: Homo sapiens, ASPC1, read-out: AsPC-1 p-ERK IC50 (nM)
Procedure: 1640 medium, penicillin/streptomycin antibiotics were purchased from Gibco, and fetal bovine serum was purchased from Biosera. CellTiter-Glo (Cell Viability Chemiluminescence Detection Reagent) reagent was purchased from Promega. AsPC-1 cell line was purchased from ATCC, Envision Multi-Tag Analyzer (PerkinElmer).
AsPC-1 (KRAS^G12D mutation, pancreatic cancer) cells were seeded in ultra-low adsorption 96-well blackwall plate, 80 μL cell suspension per well, containing 10,000 AsPC-1 cell lines from ATCC cells. Plates were incubated overnight in a carbon dioxide incubator.
The test compound was diluted 8 concentrations with a 5-fold drain, i.e., from 2 mM to 25.6 nM, and a double replicate well experiment was set up. Add 78 μL of culture medium to the intermediate plate, and transfer 2 μL of gradient diluted compound per well to the intermediate plate according to the corresponding positions. Mix well and transfer 20 μL of each well to the cell plate. […] Another cell plate was prepared, and the signal value was read as the maximum value (Max value in the equation below) on the day of dosing to participate in the data analysis.
Each 100 μL of cell viability chemiluminescence detection reagent was added to the cell plate and incubated at room temperature for 30 minutes to stabilize the luminescence signal. Use multi-label analyzer for reading. […]

[2] = system: p-ERK of KRAS^G12D mutant AsPC-1 cells; assay: AsPC-1 cell p-ERK inhibition test (HTRF), Experimental Example 1; type: cell-based; conditions: Homo sapiens, ASPC1, 3 hours compound incubation
Procedure: Experimental Example 1. AsPC-1 Cell p-ERK Inhibition Test
The inhibitory activity of the compound on p-ERK levels of KRAS^G12D-mutant pancreatic cancer AsPC-1 cells was assessed by HTRF.
ASPC-1 cells were purchased from ATCC; RPMI-1640 medium was purchased from Gibco; Fetal Bovine Serum was purchased from Hyclone; Advanced Phospho-ERK1/2 (THR202/TYR204) KIT was purchased from Bioauxilium—
ASPC-1 cells were seeded in a 384-well cell culture plate with a white bottom, 8 μL of cell suspension per well, containing 7,500 cells per well, and the cell plates were placed in a carbon dioxide incubator and incubated at 37° C. overnight;
The test compound was diluted to 3 mM with 100% DMSO as the first concentration, and then diluted to ten concentrations of 3000, 1000, 300, 100, 30, 10, 3, 1, 0.3, 0.1 μM with a pipette. Take 2 μL of compound and add 198 μL of cell starvation medium. After mixing well, take 15 μL of compound solution and add 35 μL of cell starvation medium and mix well. Then add 4 μL of compound solution in each well to the corresponding cell plate well. Place the cell plate back in the carbon dioxide incubator for continued incubation for 3 hours. At this time, the compound concentration is 3,000, 1,000, 300, 100, 30, 10, 3, 1, 0.3, 0.1 nM. […]
After the end of incubation, use a multi-label analyzer to read HTRF excitation: 320 nm, emission: 615 nm, 665 nm; […]

Row | Structure (SMILES) | IC50 [1] | IC50 [2]
1 | C=C1CN2CCC[C@@]2(COc2nc3c(c(N4CC5CCC(C4)N5)n2)CO[C@H](c2c(F)c(N)cc(C#CCl)c2C(F)(F)F)C3)C1 [Trifluoroacetate of Compound 7] | 24.9 nM | 
2 | C=C1CN2CCC[C@@]2(COc2nc3c(c(N4CC5CCC(CO)(C4)N5)n2)CO[C@H](c2c(F)c(N)cc(C#CC)c2C(F)(F)F)C3)C1 (some centres unmarked) [Hydrochloride of Compound 1] |  | 164 nM
